“Also recorded” adds a separate entry of the source.
Columns and labels:
[1] = biological target: binding of LPS to monocytes; assay: Inhibition of FITC-LPS binding to monocytes (flow cytometry); type: cell-based, human; conditions: for IC50: FITC-LPS 2.5 ng/ml, 30 ng/ml recombinant LBP, mononuclear cells of healthy volunteers, 30 minutes at 37° C., read-out: 50% inhibition concentration; for inhibition of binding of LPS to monocytes (in words): FITC-LPS binding to monocytes in vitro, FIG. 2 / FIG. 4
Procedure: 2.1 Materials and method LPS of Salmonella Re595 (ReLPS, supra) is labelled with FITC (Sigma; F7250) under conditions in which LPS is present as monomer, resulting in a FITC-LPS preparation with a ratio of 1 molecule FITC per molecule PLS. After extension desalting and dialysis against PBS, the stock solution of FITC-LPS is stored at −20° C. Mononuclear leukocytes (monocytes and lymphocytes) are isolated from heparin blood of healthy volunteers via a Ficol (Pharmacial) gradient in accordance with a standard method. After washing the cells are resuspended in isotonic HEPES buffer (with 1 mM CalCl2 and 2% BSA). Preparations with SAP are mixed with FITC-LPS and subsequently added to 3×10^5 mononuclear cells and 30 ng/ml recombinant LSP (obtained from Dr. Lichtenstein) in a total volume of 50 μl and a FITC-LPS concentration of 2.5 ng/ml. After an incubating period of 30 minutes at 37° C., the samples are stored on ice. Analysis of monocyte-associated FITC-LPS binding takes place with PAC Scan™ Flow cytometer. Forward and Sideward Scatter parameters are used to identify the monocyte population. With LysisII™ software (Beckton & Dickinson) the average fluorescence value of 5000 monocytes is calculated. See also Weersing A. J. L. et al., J. Immunol. 145, 318-324 (1990)).
3.1 Materials and method The test was performed in the same manner as described in example 2. However, SAP fragments (peptides) were used instead of SAP. The amino acid composition of the tested peptides is shown in table 2, as well as the concentration at which 50% inhibition occurs.

LPS of Salmonella Re595 = assay: Binding to LPS-Beads, SDS-PAGE analysis; conditions: FIG. 1A and 1B, serum pre-incubated with free ReLPS
Procedure: 1.1 Materials and method A 1 mg/ml solution of LPS of Salmonella Re595 (Sigma; L9764) in carbonate buffer (0.1 M, pH 9.5) is incubated for 24 hours with 5×10^7 DynaBeads™ (M450, Dynal A. S., Oslo, Norway) activated with Tosyl. The beads loaded with LPS are washed 3x and stored in HBSS+0.1% Na-azide (5×10^7 b/ml). A 10% dilution (1 to 10 dilution) of serum of healthy volunteers is mixed with 5×10^6 LPS-Beads for 30 minutes at 22° C. The serum has optionally been incubated before hand with different concentrations of free LPS. The beads are washed 3x with HBSS (Gibco BRL, Gaithersburg, Md., US) and subsequently resuspended in 25 μl SDS-PAGE sample buffer (with 2% SDS and 2.5% DTT). After boiling for 3 minutes at 100° C. the sample is analyzed on a 12.5% SDS-PAGE (Mini-ProteanII; Bio-Rad). The proteins present are stained with Coomassie Blue. A sample with Marker proteins of known sizes (Bio-Rad) serves as reference. For identification the proteins are transferred after SDS-PAGE to nitrocellulose paper by means of a Mini Trans-Blotter™. The proteins are stained with Coomassie Blue, and the protein around 30 kDa is […] and dissolved in buffer. The sequence of this sample is determined. SAP is isolated from normal human serum by making use of the Ca-dependent binding to Sepharose. […]

[2] = tested on: LPS priming of neutrophils; assay: Inhibition of LPS priming of neutrophils (fMLP/luminol luminescence); type: cell-based, human; conditions: 1 ng/ml ReLPS, 30 ng/ml r-LBP, 30 minutes at 37° C., fMLP stimulus, FIG. 3
Source text: 4.1 Materials and method Neutrophils are isolated from heparin blood of healthy volunteers via a Histopaque-Picoll gradient in accordance with a standard method (Van Amerafoort, E. S. & J. A. G. van Strijp, Cytometry 17, 294-301 (1994). The remaining erythrocytes in the neutrophil fraction are lysed with sterile water (for 30 seconds) and, after reinstatement of the isotonicity, the fraction is washed. The cells are finally inserted (suspended) in HGSS+2% Human Serum Albumin (HSA). Cells (1×10^4) are incubated with 1 ng/ml ReLPS, 30 ng/ml recombinant LPS-binding protein (r-LPS) and a sample SAP in a total volume of 100 μl for 30 minutes at 37° C. The samples are subsequently placed in a luminometer (Berthold; Autolumat LB953), whereafter via automatic injection luminol (180 μM) and 1 μM fMLP (formylmethyonyl-leucyl-phenylalanine) are added as stimulus to each tube. The luminescence response is measured continuously for 15 minutes and the results expressed as total luminescence response (area under the graph). See also Weersink et al., Immunology 83, 617-623 (1994).

| Substance | IC50 [1] | inhibition of binding of LPS to monocytes (in words) [1] | binding to LPS-Beads / free LPS (LPS of Salmonella Re595) | activation (priming) of neutrophils by LPS [2] |
| --- | --- | --- | --- | --- |
| SAP fragment, amino acids 27-34: Glu Lys Pro Leu Gln Asn Phe Thr, SEQ ID NO 8 (EKPLQNFT; Fragment of the Serum Amyloid P component, peptide 27-34) [PEP 27-34] | > 106 µM | – | – | – |
| SAP fragment, amino acids 27-39: Glu Lys Pro Leu Gln Asn Phe Thr Leu Cys Phe Arg Ala, SEQ ID NO 1 (EKPLQNFTLCFRA; Fragment of the Serum Amyloid P component, peptides 27-39; listed as Homo sapiens) [PEP 27-39] | 0.1 µM | very good activity | – | – |
| SAP fragment, amino acids 28-35: Lys Pro Leu Gln Asn Phe Thr Leu, SEQ ID NO 7 (KPLQNFTL; Fragment of the Serum Amyloid P component, peptide 28-35) [PEP 28-35] | > 100 µM | – | – | – |
| SAP fragment, amino acids 29-36: Pro Leu Gln Asn Phe Thr Leu Cys, SEQ ID NO 5 (PLQNFTLC; Fragment of the Serum Amyloid P component, peptide 29-36) [PEP 29-36] | 6.5 µM | acceptable activity | – | – |
| SAP fragment, amino acids 30-37: Leu Gln Asn Phe Thr Leu Cys Phe, SEQ ID NO 4 (LQNFTLCF; Fragment of the Serum Amyloid P component, peptide 30-37) [PEP 30-37] | 4.5 µM | acceptable activity | – | – |
| SAP fragment, amino acids 32-39: Asn Phe Thr Leu Cys Phe Arg Ala, SEQ ID NO 3 (NFTLCFRA; Fragment of the Serum Amyloid P component, peptides 32-39) [PEP 32-39] | 2 µM | acceptable activity | – | – |
| SAP fragment, amino acids 33-38: Phe Thr Leu Cys Phe Arg, SEQ ID NO 2 (FTLCFR; Fragment of the Serum Amyloid P component, peptides 33-38) [PEP 33-38] | – | acceptable activity | – | – |
| Serum Amyloid P component [SAP] | 0.05 µM | concentration-dependent inhibition | capable of binding with free LPS; also recorded: binds to the LPS-Beads | greatly reduced |

Reference: patent US6365570B1, “Pharmaceutical and diagnostic use of Serum Amyloid P component” (priority 1999, dated 2002)
